Mass density data for 4 compounds are collected here from the NIST ThermoML archive (doi:10.1016/j.tca.2006.04.004).

Data set [1] in a line: mn = molality of the nth substance listed, in mol/kg. The conditions noted are these: 101 kPa, Liquid, Pycnometric method, m1 = 1.5.
The conditions of data set [2]: 101.33 kPa, Liquid, Pycnometric method.

± gives the expanded uncertainty stated by the source.

Consider `O=[N+]([O-])[O-].[K+]` [potassium nitrate] + O, for which the mass density – broadly, the mass of a sample divided by its volume – is reported as 1086.9 ± 0.6 kg/m3 in data set [1] (298.15 K); 1085 ± 0.6 kg/m3 in data set [1] (303.15 K); 1083 ± 0.6 kg/m3 in data set [1] (308.15 K); 1080.6 ± 0.6 kg/m3 in data set [1] (313.15 K); 1077.9 ± 0.6 kg/m3 in data set [1] (318.15 K); 1075 ± 0.6 kg/m3 in data set [1] (323.15 K).

As for `[Cl-].[Na+]` [sodium chloride] + O, the mass density in data set [1] (298.15 K) came out at 1058.8 ± 0.6 kg/m3; in data set [1] (303.15 K), 1056.1 ± 0.6 kg/m3; in data set [1] (308.15 K), 1053.8 ± 0.6 kg/m3; in data set [1] (313.15 K) it was 1051.4 ± 0.6 kg/m3; in data set [1] (318.15 K), 1048.8 ± 0.6 kg/m3; in data set [1] (323.15 K) it was 1046.2 ± 0.6 kg/m3.

For the compound `O=[N+]([O-])[O-].[Na+]` [sodium nitrate] + O, the mass density in data set [1] (298.15 K) was found to be 1079.1 ± 0.6 kg/m3; in data set [1] (303.15 K) it was 1076.5 ± 0.6 kg/m3; in data set [1] (308.15 K), 1073.5 ± 0.6 kg/m3; in data set [1] (313.15 K) it was 1070.3 ± 0.6 kg/m3; in data set [1] (318.15 K) it was 1067 ± 0.6 kg/m3; in data set [1] (323.15 K), 1063.7 ± 0.6 kg/m3.

Take `O` [water]: the figures for the mass density in data set [2] (308.15 K), in data set [2] (318.15 K) and in data set [2] (323.15 K) were 994.2 ± 0.5 kg/m3, 990.3 ± 0.5 kg/m3 and 987.9 ± 0.5 kg/m3, respectively.
